The source made the active and inactive calls. The rule behind the calls is not given here.
Key:
[1] = Toxicity in subcutaneously injected NMRI mouse; assay type: organism-based; settings: in vivo, sc
[2] = system: Mus musculus; experiment: Survival of NMRI mouse for 30 days at 142 mg/kg, sc administered 24 hrs before cobalt 60 gamma irradiation; assay type: functional; settings: light or radiation study, route subcutaneous
[3] = system: Mus musculus; experiment: Survival of NMRI mouse for 30 days at 71 mg/kg, sc administered 24 hrs before cobalt 60 gamma irradiation; assay type: functional; settings: light or radiation study, route subcutaneous
[4] = system: Mus musculus; experiment: Increase in survival of subcutaneously dosed NMRI mouse irradiated with cobalt 60 gamma relative to control; assay type: functional, organism-based
[5] = system: Mus musculus; experiment: Survival of NMRI mouse subcutaneously dosed 30 mins before cobalt 60 gamma irradiation; assay type: functional
[6] = system: Mus musculus; experiment: Survival of NMRI mouse for 30 days at 214 mg/kg, sc administered 24 hrs before cobalt 60 gamma irradiation; assay type: functional; settings: light or radiation study, route subcutaneous

Structure (SMILES)	LD50 [1] [mg/kg]	survival at 142 mg/kg [2] [%]	survival at 71 mg/kg [3] [%]	Activity [4]	Survival [5] [%]	survival at 214 mg/kg [6] [%]
O=c1cc(CO)occ1O [KOJIC ACID]	1400	63	28	Active	–	–
NCCCNCCSP(=O)(O)O [AMIFOSTINE]	–	–	–	Active	90	81
